Assay results taken from patent publication US8168596B2, “Use of cycloartane compounds for treating arthritis” (NuLiv Holding Inc., priority 2008, dated 2012).

Tests used:
Assay type in all cases: cell-based, human
MMP1 = test: Western blotting of MMP1 protein expression induced by PMA in SW1353 cells (Example 2); conditions: for level of MMP1 protein expression (group without AS4 treatment set as 1): then PMA 100 ng/mL 24 h, culture medium
Procedure: Alternatively, the control group was treated with 0.1% dimethyl sulfoxide (DMSO). Phorbol myristate acetate (PMA; Sigma, St. Louis, Mo.) at a concentration of 100 ng/mL was then added into each well and the cells were incubated for 24 hours. The culture medium was collected for western blotting analysis.
Western blotting analysis was carried out based on the following procedure. Cells were washed and lysed in 0.2 mL of lysis buffer (1% NP-40, 50 mM Tris-HCl, pH 7.4, 180 mM NaCl, 1 mM EDTA, 1 mM PMSF, 1 mM NaF, 10 mM Na3VO4) for 30 min at 4° C. After centrifugation at 17500 g for 15 min, the supernatants of cell lysate were collected. Protein concentrations of the samples were measured using the bicinchoninic acid (BCA) protein assay kit according to the manufacturer's protocol (Pierce, Rockford, Ill., USA). Equal amounts of protein samples of concentrated conditioned medium (100 μg) or cell lysate supernatants (50 μg) were mixed with an appropriate volume of 4×SDS sampling buffer and separated on a 8% SDS-PAGE gel. The protein bands separated on the SDS-PAGE gel were blotted onto a polyvinylidene fluoride (PVDF) membrane. The blotted PVDF membrane was washed twice and blocked in freshly prepared Tris-buffered saline (TBS) containing 0.1% Tween-20 and 7% skim milk (TBST) for 2 hours at room temperature. The PVDF membrane was then incubated with a primary antibody against MMP1 protein (Santa Cruz Biotechnology, Santa Cruz, Calif.) for 18 hours at 4° C. Horseradish peroxidase-conjugated anti-goat antibody was used as the secondary antibody. Signals were visualized by an enhanced chemiluminescence kit (Clonetech, Palo Alto, Calif., USA) followed by exposure to X-ray films.
In another testing, the SW1353 cells were treated with 0.1 μM astragaloside IV (AS4), followed by incubation for 24 hours. PMA at a concentration of 100 ng/mL was then added into each well. The culture medium was collected after 6, 12, 18 and 24 hours of PMA treatment for western blotting analysis.

[1] = system: ERK1 (P44) and ERK2 (P42); test: Western blotting of ERK1/ERK2 in PMA-treated SW1353 cells; conditions: PMA 100 ng/mL 2 h, then 1 μM AS4 24 h; value without AS4 2.7
MMP-13 = test: Western blot of MMP-13 in PMA- or IL-1β-pre-treated SW1353 cells (Example 6); conditions: 0.1 μM, 48 h
Procedure: The cells were then plated on 6-cm dishes at a density of 1×10^6 cells/dish for 24 hours prior to any treatment. At the beginning of the experiment, the cells were pre-treated with 100 ng/mL PMA or 10 ng/mL IL-1β for 24 hours. The cells were then treated 0.1 μM Dexamethasone with, various astragaloside compounds (0.1 μM) or extracts of Astragalus membranaceous (1 μg/mL) at indicated dosages for another 48 hours. For control sample, 0.1% DMSO was used as a negative control for these experiments. The conditioned culture mediums were then centrifuged, 2-fold concentrated and collected for assay of collagens or MMPs secreted into the culture medium.
Western blotting analysis was carried out on both cultured medium and cell lysates, as follows. The cells were washed and lysed in 0.2 mL of lysis buffer (1% NP-40, 50 mM Tris-HCl, pH 7.4, 180 mM NaCl, 1 mM EDTA, 1 mM PMSF, 1 mM NaF, 10 mM Na3VO4) for 30 min at 4° C. After centrifuging at 17500 g for 15 min, the supernatants of cell lysate were also collected. Protein concentration of the samples were measured using the bicinchoninic acid (BCA) protein assay kit according to the manufacturer's protocol (Pierce, Rockford, Ill., USA). Equal amount of protein samples of concentrated conditioned medium (100 μg) or cell lysate supernatants (50 μg) were mixed with an appropriate volume of 4×SDS sampling buffer and separated by 8% SDS-PAGE gel. The protein bands separated in the SDS-PAGE gel were blotted onto a polyvinylidene fluoride (PVDF) membrane. The blotted PVDF membrane was washed twice and blocked in freshly prepared Tris-buffered saline (TBS) containing 0.1% Tween-20 and 7% skim milk (TBST) for 2 hours at room temperature. […] Horseradish peroxidase-conjugated anti-goat antibody was used as secondary antibody. Signals were visualized by an enhanced chemiluminescence kit (Clonetech, Palo Alto, Calif., USA) followed by exposure to X-ray films.

MMP-1 = test: Zymography of MMP-1 from pre-treated SW1353 cells; conditions: PMA-pre-treated SW1353; 0.1 μM, 24 h
Procedure: At the beginning of the experiment, the cells were pre-treated with 100 ng/mL PMA or 10 ng/mL IL-1β for 24 hours. The cells were then treated with 0.1 μM Dexamethasone, various astragaloside compounds (0.1 μM) or extracts of Astragalus membranaceous (1 μg/mL) at indicated dosages for another 24 hours. For control sample, 0.1% DMSO was used as a negative control for these experiments. The conditioned culture mediums were then centrifuged, 2-fold concentrated and collected for assay of collagens or MMPs secreted into the culture medium.
The proteolytic activities of MMPs from SW1353 cells were measured essentially as described previously (Circ Res, 1999; 85:906-911). The cells were lysed in lysis buffer (1% Triton X-100, 50 mM Tris-Cl, pH 7.4, 180 mM NaCl, 1 mM EDTA). The samples were measured for their protein concentration using the bicinchoninic acid (BCA) protein assay kit as described. Samples of concentrated conditioned medium and cell lysates were mixed with non-reducing electrophoresis loading buffer and subjected to electrophoresis under non-reducing conditions. The electrophoresis was carried out on a 10% SDS-PAGE co-polymerized with 2 mg/mL gelatin or casein (Sigma, St. Louis, Mo. USA). For zymographic analysis of pro-MMP-2 and activated MMP-2, the total 20 μg of culture medium were used for electrophoresis. Following electrophoresis, renaturation of the proteins was achieved by incubating the gels twice in 25 g/L Triton X-100 at room temperature for 10 min. Subsequently the gels were incubated in 50 mM Tris-HCl, pH 7.5 containing 0.2 M NaCl, 0.02% Brij35 and 10 mM CaCl2 at 37° C. for 18 hours. After the gels were stained with Coomassie Brilliant Blue R-250 and destained, zones of proteolytic activities became visible as transparent bands in the stained gel. In order to obtain higher sensitivity, the gels were further destained in a solution of 1% Triton X-100 (1 to 2 hours). This procedure increased the signal-to-noise ratio, allowing the visualization of faint gelatinase bands at 92 kDa, 125 kDa and greater than 200 kDa. Zymograms were read using a Molecular Dynamics (Sunnyvale, Calif., USA) computing laser densitometer with Image Quant software.

## CC(C)(O)[C@@H]1CC[C@](C)([C@H]2[C@@H](O)C[C@@]3(C)[C@@H]4C[C@H](O[C@@H]5O[C@H](CO)[C@@H](O)[C@H](O)[C@H]5O)[C@H]5C(C)(C)[C@@H](O[C@@H]6OC[C@@H](O)[C@H](O)[C@H]6O)CC[C@@]56C[C@@]46CC[C@]23C)O1 [AS4, Astragaloside IV]
MMP1; AS4 0.01 μM 24 h
  level of MMP1 protein expression (group without AS4 treatment set as 1): 0.77
MMP1; AS4 0.1 μM 24 h
  level of MMP1 protein expression (group without AS4 treatment set as 1): 0.64
MMP1; AS4 0.1 μM 24 h, then PMA 100 ng/mL, 6, 12, 18 and 24 hours
  level of expression of MMP1 protein at different time points, compared with only PMA treatment: inhibited
MMP1; AS4 1 μM 24 h
  level of MMP1 protein expression (group without AS4 treatment set as 1): 0.55
[1]
  value of expression of ERK1 (P44) and ERK2 (P42): 1.7
MMP-13; IL-1β-pre-treated SW1353 cell extract
  MMP-13, Western blot, relative to Ctrl 1.00: 1.10
MMP-13; IL-1β-pre-treated SW1353 culture medium
  MMP-13, Western blot, relative to Ctrl 1.00: 0.56
MMP-13; PMA-pre-treated SW1353 cell extract
  MMP-13, Western blot, relative to Ctrl 1.00: 0.79
MMP-1
  MMP-1, Zymography, relative to Ctrl 1.00: 0.68
